How the values were obtained:
tremorine-induced tremor = experiment: Anti-tremorine activity: antagonism of tremorine-induced tremor; assay type: in vivo, male d,d-strain mice; details: Mus musculus, mice
Experimental: (§1) Male d,d-strain mice weighing 18 to 22 grs. were used for the experiments.
(§2) Groups of each 10 mice were treated orally and intraperitoneally with a wide range of doses of the above-mentioned compounds or saline.
1) Anti-tremorine activity:
Antagonistic effects on the tremorine-induced tremor were observed as follows:
Ten (10) minutes after the intraperitoneal injection of the individual compounds under test, on one hand, and 40 minutes after the oral administration of said individual compounds, on the other hand, 20 mg/kg of tremorine hydrochloride were subcutaneously injected to each group of the mice. The occurrence of tremor on the individually caged mice was visually observed 20 minutes after the tremorineinjection.

[1] = tested on: nicotine-induced convulsive death; experiment: Anti-nicotine activity: antagonism of convulsive death caused by nicotine; assay type: in vivo, male d,d-strain mice; details: Mus musculus, mice
Experimental: as §1, §2
(§3) 2) Anti-nicotine and anti-physostigmine activities:
(§4) Antagonistic effects against the convulsive death of the mice caused by the injections of nicotine, on one hand, and physostigmine, on the other hand, were observed as follows:
(§5) Thirty (30) minutes after the intraperitoneal injection of the individual compounds under test, on one hand, and 60 minutes after the oral administration of said individual compounds, on the other hand, 4 mg/kg of nicotine tartrate, on one hand, and 0.5 mg/kg of physostigmine sulfate, on the other hand, were intravenously injected to each group of the mice. The convulsive death, if any, of the mice in each group was then observed.

[2] = tested on: physostigmine-induced convulsive death; experiment: Anti-physostigmine activity: antagonism of convulsive death caused by physostigmine; assay type: in vivo, male d,d-strain mice; details: Mus musculus, 1 h; oral, mice, 60 minutes after administration; footnote 1) for control: no effect up to the dose
Experimental: as §1, §2, §3, §4, §5

in vivo = experiment: in vivo; design: species or system male d,d-strain mice; details: mouse, po
Experimental: as §1, §2

[3] = Acute toxicity: mortality during 24 hours after oral administration; assay type: in vivo; details: mouse, in vivo, mice, mortality during 24 hours
Experimental: as §1, §2
(§6) The mortality ensued during 24 hours after the oral administration was recorded to determine acute toxicity of the compound under test on the mice.

mice = experiment: as above; assay type: in vivo; details: 24 hours
Experimental: as §1, §2, §6

[4] = tested on: isolated smooth muscle preparations; experiment: Smooth muscle-relaxing activity on isolated smooth muscle preparations; details: for smooth muscle-relaxant activity (in words): A at 4 × 10^-6, B at 10^-6, C at 4 × 10^-7 g/ml, concentration for control not stated
From the text: (§7) Additionally, anti-histamine, anti-acetylcholine, antiserotonin and smooth muscle-relaxing activities of the compounds under test were examined on isolated smooth muscle preparations.

[5] = tested on: isolated smooth muscle preparations (histamine); experiment: Anti-histamine activity on isolated smooth muscle preparations; details: A at 4 × 10^-6, B at 10^-6, C at 4 × 10^-7 g/ml
From the text: as §7

[6] = tested on: isolated smooth muscle preparations (acetylcholine); experiment: Anti-acetylcholine activity on isolated smooth muscle preparations; details: A at 4 × 10^-6, B at 10^-6, C at 4 × 10^-7 g/ml
From the text: as §7

[7] = 1 h, oral, 60 minutes after administration
[8] = ip, 0.5 h, intraperitoneal, 30 minutes after injection

Compound | ED50 (tremorine-induced tremor; [7]) [mg/kg] | ED50 (tremorine-induced tremor; [8]) [mg/kg] | ED50 [1, 7] [mg/kg] | ED50 [1, 8] [mg/kg] | ED50 [2] [mg/kg] | TD50 at 1 h (in vivo) [mg/kg] | LD50 at 24 h [3] [mg/kg] | acute toxicity compared with Compound under control (in words) (mice) | smooth muscle-relaxant activity (in words) [4] | anti-histamine activity (in words) [5] | anti-acetylcholine activity (in words) [6] | smooth muscle-relaxant potency relative to papaverine ([4]; Compound under control vs papaverine)
CCc1ccc(C(=O)C(C)CN2CCCCC2)cc1.Cl (centres unmarked) [Compound A, 4'-ethyl-2-methyl-3-piperidino-propiophenone hydrochloride] | 32 | 23 | 175 | 21 | 84 | 640 | 800 to 1000 | slighly stronger | strong smooth muscle-relaxant activities | do not entirely produce | do not entirely produce | 
CCCc1ccc(C(=O)C(C)CN2CCCCC2)cc1.Cl (centres unmarked) [Compound B, 4'-n-propyl-2-methyl-3-piperidino-propiophenone hydrochloride] | 50 | 21 | 135 | 20 | 150 | 800 | 1000 to 1500 | almost equivalent to that of Compound under control | strong smooth muscle-relaxant activities | do not entirely produce | do not entirely produce | 
CC(CN1CCCCC1)C(=O)c1ccc(C(C)C)cc1.Cl (centres unmarked) [Compound C, 4'-isopropyl-2-methyl-3-piperidino-propiophenone hydrochloride] | 118 | 25 | 37 | 10 | 50 | 84 | 400 to 500 |  | strong smooth muscle-relaxant activities | do not entirely produce | do not entirely produce | 
Cc1ccc(C(=O)C(C)CN2CCCCC2)cc1.Cl (centres unmarked) [Compound for Control, 2,4'-dimethyl-3-piperidino-propiophenone hydrochloride, reference compound] | 210 | 80 | 450 | 35 | > 400 | 800 | 1000 to 1500 |  | weak smooth muscle-relaxant activity |  |  | about 1/3

From patent US3995047A, “Propiophenone derivatives in the treatment of pathological muscular conditions” (Eisai Co., Ltd., priority 1973, dated 1976)
